# Assay results as given in patent publication US6235284A, “Synthetic polypeptides belonging to the hepatitis C virus (HCV) and which can be used especially for detecting the latter” (Bio Merieux, priority 1992, dated 2001).
# Where “and” joins values, the source holds several entries; their conditions need not be identical. Equal entries are not always repeated.
# Key:
# [1] = tested on: anti-HCV antibodies (HCV-positive sera); assay: ELISA detection of anti-HCV antibodies in HCV-positive sera with adsorbed peptides; type: binding, human; conditions: for optical density at 492 nm: peptide 10 μg/ml, duplicate
# Experimental: The reactivity of these three peptides towards the sera of individuals infected with the hepatitis C virus, termed (HCV) positive, was evaluated in an ELISA test according to the procedure described below.
# (§1) Detection of anti-HCV Antibodies by ELISA
# (§2) The wells of a microtiter plate of "NUNC MAXISORB™" trademark are saturated with 100 μl of a solution containing the peptide or a mixture of peptides (10 μg/ml) for 2 hours at 37° C. The plate is then emptied, then washed with a wash buffer containing 0.05% TWEEN™ 20(polysorbate 20). The wells are saturated with 100 μl of wash buffer supplemented with 10% goat serum (v/v), then incubated for 30 minutes at 37° C., then washed again as above. The sera to be analyzed are diluted to the appropriate dilution with saturation buffer. The incubation of the sera is 1 hour at 37° C. The wells are again washed. The solution of conjugate (goat IgG to human IgG labelled with peroxidase) at a dilution of 1/1000 in the saturation buffer is then added and the incubation lasts for 90 minutes at 37° C. After washing, the solution of orthophenylenediamine substrate is added. After 10 minutes, the reaction is stopped with 50 μl of H2 SO4 and the optical density is read at 492 nm. It should be noted that all the tests were carried out in duplicate.
# (§3) For that, the different peptides are adsorbed on the microplates at a concentration of 10 μg/ml and the sera are used at 1/100 dilution.
# (§4) The values obtained, which are collated in Table 1 below, correspond to the optical density (OD) multiplied by 10^3, at 492 nm.
# (§5) For each serum the experiment was carried out in duplicate. The **** are values outside the upper scale.
# The different peptides are absorbed onto microplates at a concentration of 10 μg/ml and the sera are used at the dilution stated.
# The values obtained, which are collated in Table 2 below, correspond to the optical density at 492 nm. All the experiments were carried out in duplicate.
# Each serum was, in a first instance, tested at the dilution 1/100.
# The values given correspond to the optical density read at 492 nm multiplied by the factor 10^3.
# normal sera = assay: ELISA of peptides on normal sera (specificity); type: binding, human; conditions: peptide 10 μg/ml, duplicate
# Experimental: as §1, §2, §3, §4, §5
# HCV-positive sera = conditions: Nasoff et al., recombinant fusion proteins; cited from earlier work
substance,measurement,setting,value
R40R: peptide extending from arginine 74 up to arginine 115 of the HCV CORE protein (RTWAQPGYPWPLYGNEGCGWAGWLLSPRGSRPSWGPTDPRRR),sera with which the peptide reacts,[1]; cf Table 1,about 10%
same,optical density at 492 nm,"[1]; serum B 1, 1/100",172 OD × 10^3 and 173 OD × 10^3
same,optical density at 492 nm,"[1]; serum B 2, 1/100",364 OD × 10^3 and 345 OD × 10^3
same,optical density at 492 nm,"[1]; serum B 3, 1/100",304 OD × 10^3 and 341 OD × 10^3
same,optical density at 492 nm,"[1]; serum B 4, 1/100",405 OD × 10^3 and 346 OD × 10^3
same,optical density at 492 nm,"[1]; serum B 5, 1/100",360 OD × 10^3 and 281 OD × 10^3
same,optical density at 492 nm,"[1]; serum B 6, 1/100",172 OD × 10^3 and 163 OD × 10^3
same,optical density at 492 nm,"[1]; serum B 7, 1/100",418 OD × 10^3 and 457 OD × 10^3
same,optical density at 492 nm,"[1]; serum B 8, 1/100",271 OD × 10^3 and 259 OD × 10^3
same,optical density at 492 nm,"[1]; serum B 9, 1/100",235 OD × 10^3 and 229 OD × 10^3
same,optical density at 492 nm,"[1]; serum B 10, 1/100",108 OD × 10^3 and 98 OD × 10^3
same,optical density at 492 nm,"[1]; serum B 11, 1/100",164 OD × 10^3 and 184 OD × 10^3
same,optical density at 492 nm,"[1]; serum B 12, 1/100",136 OD × 10^3 and 117 OD × 10^3
same,optical density at 492 nm,"[1]; serum B 13, 1/100",140 OD × 10^3 and 99 OD × 10^3
same,optical density at 492 nm,"[1]; serum B 14, 1/100",130 OD × 10^3 and 125 OD × 10^3
same,optical density at 492 nm,"[1]; serum B 15, 1/100",301 OD × 10^3 and 303 OD × 10^3
same,optical density at 492 nm,"[1]; serum B 16, 1/100",117 OD × 10^3 and 125 OD × 10^3
same,optical density at 492 nm,"[1]; serum P 1, 1/100",375 OD × 10^3 and 420 OD × 10^3
same,optical density at 492 nm,"[1]; serum P 2, 1/100",399 OD × 10^3 and 391 OD × 10^3
same,optical density at 492 nm,"[1]; serum P 3, 1/100",223 OD × 10^3 and 215 OD × 10^3
same,optical density at 492 nm,"[1]; serum P 4, 1/100",309 OD × 10^3 and 307 OD × 10^3
same,optical density at 492 nm,"[1]; serum P 5, 1/100",129 OD × 10^3 and 176 OD × 10^3
same,optical density at 492 nm,"[1]; serum P 6, 1/100",87 OD × 10^3 and 100 OD × 10^3
same,optical density at 492 nm,"[1]; serum P 7, 1/100",496 OD × 10^3 and 478 OD × 10^3
same,optical density at 492 nm,"[1]; serum P 8, 1/100",282 OD × 10^3 and 328 OD × 10^3
same,optical density at 492 nm,"[1]; serum P 9, 1/100",159 OD × 10^3 and 158 OD × 10^3
same,optical density at 492 nm,"[1]; serum P 10, 1/100",218 OD × 10^3 and 216 OD × 10^3
same,optical density at 492 nm,"[1]; serum P 11, 1/100",1191 OD × 10^3 and 1377 OD × 10^3
same,optical density at 492 nm,"[1]; serum P 12, 1/100",1121 OD × 10^3 and 1231 OD × 10^3
same,optical density at 492 nm,"[1]; serum P 13, 1/100",113 OD × 10^3 and 116 OD × 10^3
same,optical density at 492 nm,"[1]; serum P 14, 1/100",280 OD × 10^3 and 270 OD × 10^3
same,optical density at 492 nm,"[1]; serum P 15, 1/100",2305 OD × 10^3 and 2335 OD × 10^3
same,optical density at 492 nm,"[1]; serum P 16, 1/100",938 OD × 10^3 and 964 OD × 10^3
same,optical density at 492 nm,"[1]; serum P 17, 1/100",217 OD × 10^3 and 212 OD × 10^3
same,optical density at 492 nm,"[1]; serum P 18, 1/100",1427 OD × 10^3 and 1327 OD × 10^3
same,optical density at 492 nm,"[1]; serum P 19, 1/100",84 OD × 10^3 and 89 OD × 10^3
same,optical density at 492 nm,"[1]; serum P 20, 1/100",714 OD × 10^3 and 740 OD × 10^3
same,optical density at 492 nm,"normal sera; normal serum SN 10, 1/100",163 OD × 10^3 and 154 OD × 10^3
same,optical density at 492 nm,"normal sera; normal serum SN 11, 1/100",150 OD × 10^3 and 138 OD × 10^3
same,optical density at 492 nm,"normal sera; normal serum SN 16, 1/100",426 OD × 10^3 and 439 OD × 10^3
same,optical density at 492 nm,"normal sera; normal serum SN 17, 1/100",104 OD × 10^3 and 74 OD × 10^3
same,optical density at 492 nm,"normal sera; normal serum SN 18, 1/100",119 OD × 10^3 and 87 OD × 10^3
same,optical density at 492 nm,"normal sera; normal serum SN 19, 1/100",480 OD × 10^3 and 496 OD × 10^3
glutathione S-transferase,reactivity towards HCV-positive sera,HCV-positive sera,none of the sera tested reacts
